Laboratory results: patent US20120088660A1, “Antifungal 1,2,4-triazolyl Derivatives” (BASF SE, priority 2009, published 2012)

test system: Phakopsora pachyrhizi; assay: Curative control of soy bean rust on soy beans (greenhouse test); format: in vivo; details: 300 ppm aqueous preparation sprayed to run-off after inoculation (curative); soy bean seedlings; assessed after 14 days; untreated plants 60% infected
Description: The spray soultions were prepared in several steps: The stock solution were prepared by adding a mixture of acetone and/or dimethylsulfoxide and the wetting agent/emulsifier Wettol, which is based on ethoxylated alkylphenoles, in a relation (volume) solvent-emulsifier of 99 to 1 to 25 mg of the compound to give a total of 10 ml. Water was then added to total volume of 100 ml. This stock solution was diluted with the described solvent-emulsifier-water mixture to the given concentration. 1. Curative Control of Soy Bean Rust on Soy Beans Caused by Phakopsora Pachyrhizi Leaves of pot-grown soy bean seedlings were inoculated with spores of Phakopsora pachyrhizi. To ensure the success of the artificial inoculation, the plants were transferred to a humid chamber with a relative humidity of about 95% and 20 to 24° C. for 24 h. The next day the plants were cultivated for 2 days in a greenhouse chamber at 23-27° C. and a relative humidity between 60 and 80%. Then the plants were sprayed to run-off with an aqueous suspension, containing the concentration of active ingredient or their mixture as described below. The plants were allowed to air-dry. Then the trial plants were cultivated for 14 days in a greenhouse chamber at 23-27° C. and a relative humidity between 60 and 80%. The extent of fungal attack on the leaves was visually assessed as % diseased leaf area.

Compound | infection (extent of fungal attack on the leaves, visually assessed as % diseased leaf area) [%]
Cc1ccc(OCCCCCC(O)(Cn2nc[nH]c2=S)C(C)(C)C)cc1 (stereo not drawn) [Example 20, 1-[2-tert-butyl-7-(4-methylphenoxy)-2-hydroxyheptyl]-1H-1,2,4-triazole-5(4H)-thione] | 0
CC(C)(C)C(O)(CCCCOc1cccc(Cl)c1)Cn1nc[nH]c1=S (stereo not drawn) [Example 6, 1-[2-tert-Butyl-6-(3-chlorophenoxy)-2-hydroxyhexyl]-1H-1,2,4-triazole-5(4H)-thione] | 0
CC(C)(C)C(O)(CCCCOc1ccc(F)cc1F)Cn1nc[nH]c1=S (stereo not drawn) [Example 3, 1-[2-tert-Butyl-6-(2,4-difluorophenoxy)-2-hydroxyhexyl]-1H-1,2,4-triazole-5(4H)-thione] | 0
CC(C)(C)C(O)(CCCCCOc1ccc(F)cc1F)Cn1nc[nH]c1=S (stereo not drawn) [Example 13, 1-[2-tert-butyl-7-(2,4-difluorophenoxy)-2-hydroxyheptyl]-1H-1,2,4-triazole-5(4H)-thione] | 0
CC(C)(C)C(O)(CCCCCOc1ccc(Cl)cc1)Cn1nc[nH]c1=S (stereo not drawn) [Example 18, 1-[2-tert-butyl-7-(4-chlorophenoxy)-2-hydroxyheptyl]-1H-1,2,4-triazole-5(4H)-thione] | 0
CC(C)(C)C(O)(CCCCOc1ccccc1Cl)Cn1nc[nH]c1=S (stereo not drawn) [Example 4, 1-[2-tert-Butyl-6-(2-chlorophenoxy)-2-hydroxyhexyl]-1H-1,2,4-triazole-5(4H)-thione] | 0
CC(C)(C)C(O)(CCCCCOc1ccccc1Cl)Cn1nc[nH]c1=S (stereo not drawn) [Example 16, 1-[2-tert-butyl-7-(2-chlorophenoxy)-2-hydroxyheptyl]-1H-1,2,4-triazole-5(4H)-thione] | 0
CC(C)(C)C(O)(CCCCCOc1cccc(Cl)c1)Cn1nc[nH]c1=S (stereo not drawn) [Example 17, 1-[2-tert-butyl-7-(3-chlorophenoxy)-2-hydroxyheptyl]-1H-1,2,4-triazole-5(4H)-thione] | 0
CC(C)(C)C(O)(CCCCOc1ccccc1)Cn1nc[nH]c1=S (stereo not drawn) [Example 1, 1-(2-tert-Butyl-2-hydroxy-6-phenoxyhexyl)-1H-1,2,4-triazole-5(4H)-thione] | 0
CC(C)(C)C(O)(CCCCCOc1ccccc1F)Cn1nc[nH]c1=S (stereo not drawn) [Example 11, 1-[2-tert-butyl-7-(2-fluorophenoxy)-2-hydroxyheptyl]-1H-1,2,4-triazole-5(4H)-thione] | 0
CC(C)(C)C(O)(CCCCOc1ccc(Cl)cc1Cl)Cn1nc[nH]c1=S (stereo not drawn) [Example 5] | 0
CC(C)(C)C(O)(CCCCOc1ccccc1F)Cn1nc[nH]c1=S (stereo not drawn) [Example 2, 1-[2-tert-Butyl-6-(2-fluorophenoxy)-2-hydroxyhexyl]-1H-1,2,4-triazole-5(4H)-thione] | 0
